Like-named read-outs stand apart in the source and are kept apart here.
How the values were obtained:
[1] = system: oxotremorine-induced body tremor in mice; experiment: Oxotremorine antagonist assay (body tremor) in mice; assay type: in vivo; conditions: Mus musculus, ip, read-out: Oxot. Antagonist Tremor (ED50)
Procedure: Oxotremorine antagonist assays were performed on groups of six mice weighing 18-22 g. Each was dosed intraperitoneally with the test compound prepared in 0.25% methylcellulose and were placed in individual cages. Twenty minutes later the mice were injected subcutaneously with 0.5 mg/kg of oxotremorine dissolved in saline. Ten minutes later the mice were scored for body tremor. Doses of the compound under study began at 100 mg/kg and were decreased at a 0.5 log interval until no responders were obtained.

[2] = system: HCl-induced writhing in CF1 mice; experiment: Analgesic activity, HCl writhing protection in mice; assay type: in vivo; conditions: Mus musculus, sc, 0.25 h, read-out: CNS Id (ED50 mg/kg) HCl Writh. Protect
Procedure: For determination of analgesic activity, the test compound was injected subcutaneously into a group of four CF1 mice. Thirty minutes later the mice were injected i.p. with 0.15% HCl, 10 ml./kg. Mice are then placed in plastic boxes and observed for fifteen minutes to record the number of animals failing to writhe.

CNS cholinergic receptor [3] = experiment: Cholinergic receptor binding assay, tritiated oxotremorine M ligand; conditions: read-out: CNS Cholinergic Receptor Binding Assays Ki (nM) Oxotremorine
CNS cholinergic receptor [4] = assay type: binding; conditions: tritiated quinuclidine benzylate; read-out: CNS Cholinergic Receptor Binding Assays Ki (nM) QNB
[5] = i.p. test compound, 20 min before oxotremorine 0.5 mg/kg s.c., mice

Row | Structure (SMILES) | ED50 [1, 5] | ED50 ([2]; s.c. test compound, 30 min before 0.15% HCl i.p., CF1 mice) | Ki (CNS cholinergic receptor [3]) | Ki (CNS cholinergic receptor [4]) | ED50 [1] | ED50 [2]
1 | CC(=O)N(C)C(C)C#CCN1CCCC1 (stereo not shown) [BM-5, reference compound] | 3.7 mg/kg | 4.4 mg/kg |  |  |  | 
2 | O=C1CCCN1CC#CCn1ccnc1Cl [Compound 8, 1-[4-(2-Chloro-1H-imidazol-1-yl)-2-butynyl]-2-pyrrolidinone] | > 100 mg/kg |  | 577 nM |  |  | 
3 | Cc1cn(CC#CCN2CCCC2=O)cn1 [Compound 9, 1-[4-(4-Methyl-1H-imidazol-1-yl)-2-butynyl]-2-pyrrolidinone] | > 100 mg/kg |  | 10.3 nM | 377 nM |  | 
4 | O=C1CCC(=O)N1CC#CCn1ccnc1 [Compound 10, 1-[4-(1H-Imidazol-1-yl)-2-butynyl]-2,5-pyrrolidinedione] |  |  | 23.5 nM | 634 nM | 25 mg/kg | 
5 | Cc1cncn1CC#CCN1C(=O)CCC1=O [Compound 11, 1-[4-(5-Methyl-1H-imidazol-1-yl)-2-butynyl]-2,5-pyrrolidinedione] |  |  | 10.3 nM | 100 nM | 37 mg/kg | 
6 | Br.Cc1cncn1CC#CC(C)N1CCCC1=O (stereo not shown) [Compound 12, 1-[4-(5-Methyl-1H-imidazol-1-yl)-1-methyl-2-butynyl]-2-pyrrolidinone hydrobromide] | 25 mg/kg |  | 5.2 nM | 16.8 nM |  | 
7 | Cc1cncn1CC#CCN1C(=O)CCC1C (stereo not shown) [Compound 13] | 14 mg/kg |  | 1.7 nM | 11.6 nM |  | 
8 | CC(=O)N(C)C(C)C#CCn1c(C)cnc1C (stereo not shown) [Compound 18, N-[4-(2,5-Dimethyl-1H-imidazol-1-yl)-1-methyl-2butynyl]-N-methylacetamide] | 14.2 mg/kg |  | 6.3 nM | 8.5 nM |  | 
9 | CC(=O)N(C)CC#CCn1ccnc1 [Compound 19, N-[4-(1H-Imidazol-1-yl)-2-butynyl]-N-methylacetamide] | > 100 mg/kg |  | 1.9 nM |  |  | 
10 | CC(=O)N(C)CC#CCn1cncc1C [Compound 20, N-[4-(5-Methyl-1H-imidazol-1-yl)-2-butynyl]-N-methylacetamide] | > 100 mg/kg |  | 3.6 nM | 172 nM |  | 
11 | CC(=O)N(C)C(C)C#CCn1cncc1C (stereo not shown) [Compound 21, N-[4(5-Methyl-1H-imidazol-1-yl)-1-methyl-2-butynyl]-N-methylacetamide] | 80 mg/kg |  | 10 nM | 184 nM |  | 
12 | CC(=O)NCC#CCn1ccnc1 [Compound 22, N-[4-(1H-Imidazol-1-yl)-2-butynyl]acetamide] | > 100 mg/kg |  | 187 nM |  |  | 
13 | CC(=O)NCC#CCn1cncc1C [Compound 23, N-[4-(5-Methyl-1H-imidazol-1-yl)-2-butynyl]acetamide] | > 100 mg/kg |  | 213 nM |  |  | 
14 | Cc1cncn1CC#CCN(C)C(=O)N(C)C [Compound 25, [4-(5-Methyl-1H-imidazol-1-yl)-2-butynyl]trimethyl urea] | > 100 mg/kg |  | 82.1 nM |  |  | 
15 | COC(=O)N(C)CC#CCn1ccnc1 [Compound 26, Methyl [4-(1H-imidazol-1-yl)-2-butynyl]methylcarbamate] | > 100 mg/kg |  | 120 nM |  |  | 
16 | COC(=O)N(C)CC#CCn1cncc1C [Compound 27, Methyl [4-(5-methyl-1H-imidazol-1-yl)-2-butynyl]methyl carbamate] | > 100 mg/kg |  | 200 nM |  |  | 
17 | C(#CCn1ccnc1)CN1CCCC1 [Compound 28, 1-[4-(Pyrrolidinyl)-2-butynyl]-1H-imidazole] |  |  |  |  | > 100 mg/kg | 3.1 mg/kg
18 | CN(C)CC#CCn1ccnc1 [Compound 29, 4-(1H-Imidazol-1-yl)-N,N-dimethyl-2-butyn-1-amine] |  |  | 10000 nM |  | > 100 mg/kg | > 50 mg/kg
19 | Cc1nccn1CC#CCN1CCCC1 [Compound 30, 2-Methyl-1-[4-(pyrrolidinyl)-2-butynyl]-1H-imidazole] |  |  |  |  | > 100 mg/kg | 5 mg/kg
20 | Cc1cncn1CC#CCN1CCCC1 [Compound 32, 5-Methyl-1[(4-pyrrolidinyl)-2-butynyl]-1H-imidazole] |  |  | 436 nM |  | > 100 mg/kg | 
21 | C(#CCN1CCCC1)CN1CCCC1 [Tremorine, reference compound] |  |  | 370 nM | 4600 nM | > 100 mg/kg | 

Source: patent US5100909A, “Acetylenic imidazoles having central nervous system activity” (The Upjohn Company, priority 1991, dated 1992)
